Assays:
[1] = tested on: NMDA or AMPA-mediated transmission; test: VTA slice, NMDA or AMPA-mediated transmission; assay type: cell-based, mouse
Experimental: Electrophysiology. Preparation of Brain slices: Mice (8-10 weeks) were injected AAV10 HaloTag™-dTomato to striatum or ventral tegmental area (VTA). After 3-5 weeks, mice were deeply anesthetized with isoflurane and euthanized by decapitation. Coronal brain slices ([…]) containing striatum or VTA were prepared by standard methods using a Vibratome (Leica, VT 1200S), in ice-cold high sucrose cutting solution containing (in mM) 220 sucrose, 3 KCl, 1.25 NaH2PO4, 25 NaHCO3, 12 MgSO4.7H2O, 10 glucose, and 0.2 CaCl2) bubbled with 95% O2 and 5% CO2. […]
Whole-cell patch-clamp recording: The brain slices or retinas were perfused with bubbled aCSF at 29-30° C. with a 2 ml/min flow rate. […] Series resistance was monitored using 5-10 mV hyperpolarizing step throughout the experiment, and cells were discarded if series resistance changed more than ˜15% during the experiment. […] Statistical significance was determined using Student's t or one-way or two-way ANOVA tests. eIPSCs or eEPSCs decay time constants were obtained by fitting a single-exponential function, I(t)=I exp(−t/T)+ISS, where I(t) is the amplitude of the current at time t and ISS is the steady-state current, I is instantaneous current subtracted from Iss, and t is the time constant of decay. […]

[2] = tested on: DAT-Cre mice with +HTP or ddHTP in VTA dopamine neurons; test: locomotor speed after infusion into the VTA of DAT-Cre mice; assay type: in vivo, mouse; conditions: for running / locomotor speed, +HTP mice: 10:1 mixture with Alexa647.1DART.2, 1.2 μL of 10 μM into the VTA; for running / locomotor speed, ddHTP mice: same dose
Excerpt: (FIG. 4A) Validation of gabazine.1^DART.2 in cerebellar slice. Top: voltage-clamp schematic. Bottom: tonic GABAAR in granule cells expressing ^+HTP or ^ddHTP. […] Data are mean±SEM, cells normalized to baseline. (FIG. 4B) In vivo delivery of gabazine.1^DART.2 to cerebellar granule cells. Top right: schematic of experimental approach, GCaMP6f granule-cell activity obtained in the absence of sensory stimuli. Top left: example field of view, GCaMP6f signal averaged across trials. Bottom: example calcium traces (ΔF/F) in an awake ^+HTP mouse before (baseline) and after (1 μL of 1 μM gabazine.1^DART.2) infusion. (FIG. 4C) In vivo, 1 μL of 1 μM gabazine.1^DART.2 to ^+HTP mice. Color indicates ΔF/F, each row is one cell before (left) and after (right) gabazine.1^DART.2 infusion. […] (FIG. 4D) In vivo, 1 μL of 1 μM gabazine.1^DART.2 to ^ddHTP mice. Format as in panel C. […] (FIG. 4E) Validation of gabazine.7^DART.2 in VTA slice. Top: evoked-IPSC configuration. […] Data are mean±SEM, cells normalized to baseline. […] Data are mean±SEM, normalized to baseline speed of each animal.
Behavioral assays: Assays were performed at least 3 weeks after viral injection to allow for recombinant protein expression. Mice were acclimated to head-fixation for 3 consecutive days prior to behavioral experiments. Reagents were infused into the brain via the cranial cannula. Immediately following infusion, mice were placed into open-field chambers (27 cm×27 cm) in the dark, and behavior was recorded using infrared video.
A practical issue for intrinsically active neurons is that one can no longer leverage the concept of a floor-effect (i.e., silencing an already quiet neuron), making it difficult to apply optogenetic principles of necessity and sufficiency. Thus, it was sought to examine the technical feasibility of using DART to block neurotransmitter signaling onto these cells; in essence, preventing extrinsic neurotransmitter modulation of dopamine neurons, without disrupting their intrinsic rhythm. Moreover, it was sought to use behavior as the readout, which would likely require manipulation of more cells over a larger brain volume than in the prior experiment. Given this goal, a wide dosing window is key, and thus effort was focused on gabazine.7DART.2, with expression of AAV DIO +HTPGPI or AAV DIO ddHTPGPI in DAT-Cre mice. […] Next, locomotor effects of the manipulations were assessed using the same viral parameters along with bilateral indwelling cannula.

Row | SMILES | antagonism of the AMPAR in slice [1] | impact on locomotion ([2]; VTA dopamine neurons) | impact on NMDA or AMPA-mediated transmission ([1]; +HTP cells) | running / locomotor speed, +HTP mice [2] | running / locomotor speed, +HTP mice ([2]; listed as gabazine.7^DART.2) | running / locomotor speed, ddHTP mice [2] | running / locomotor speed, ddHTP mice ([2]; listed as gabazine.7^DART.2)
1 | COc1cc(CCCCl)ccc1CCOCCNC(=O)c1ccc(CNC(=O)CCOCCOCCOCCOCCOCCOCCOCCOCCOCCOCCOCCOCCOCCOCCOCCOCCOCCOCCOCCOCCOCCOCCOCCOCCOCCOCCOCCOCCOCCOCCOCCOCCOCCOCCOCCOCCn2cc(COCCOCCOCCOCCOCCOCCNC(=O)CCCn3c(=O)c(=O)[nH]c4cc([N+](=O)[O-])c(-n5ccnc5)cc43)nn2)cc1 [YM90K.1DART.2] | potent antagonism of the AMPAR | no impact on locomotion |  |  |  |  | 
2 | COc1cc(CCCCl)ccc1CCOCCNC(=O)c1ccc(CNC(=O)CCOCCOCCOCCOCCOCCOCCOCCOCCOCCOCCOCCOCCOCCOCCOCCOCCOCCOCCOCCOCCOCCOCCOCCOCCOCCOCCOCCOCCOCCOCCOCCOCCOCCOCCOCCOCCn2cc(COCCOCCOCCOCCOCCOCCOCCCCCCOc3ccc(-c4nn(CCCCC(=O)O)c(=N)cc4C)cc3)nn2)cc1 [gabazine.7DART.2] |  |  | no impact on NMDA or AMPA-mediated transmission | significant increase in running speed | increased locomotor speed | no impact in ^ddHTP animals | not in ^ddHTP control mice

Source: patent publication US20250213700A1, “COMPOUNDS, COMPOSITIONS, AND METHODS FOR CELL-SPECIFIC PHARMACOLOGY” (Duke University, priority 2022, published 2025)
